Test results reported in PubChem BioAssay (NCI).
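Cells were grown in 96-well plates and exposed to each compound for 48 hours at five concentrations; endpoints were interpolated linearly between bracketing concentrations, or set to the highest concentration if not reached. Abbreviation: GI50, concentration required for 50% inhibition of growth. The concentration for full growth arrest is given as TGI.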

How the values were obtained:
Test in all cases: DTP human tumour cell line panel, 48 h
786-0 renal = tested on: 786-0 renal
A498 renal = tested on: A498 renal
A549 NSCLC = tested on: A549 NSCLC
ACHN renal = tested on: ACHN renal
BT-549 breast = tested on: BT-549 breast
CAKI-1 renal = tested on: CAKI-1 renal
CCRF-CEM leukemia = tested on: CCRF-CEM leukemia
COLO 205 colon = tested on: COLO 205 colon
DU-145 prostate = tested on: DU-145 prostate
EKVX NSCLC = tested on: EKVX NSCLC
HCC-2998 colon = tested on: HCC-2998 colon
HCT-116 colon = tested on: HCT-116 colon
HCT-15 colon = tested on: HCT-15 colon
HL-60(TB) leukemia = tested on: HL-60(TB) leukemia
HOP-62 NSCLC = tested on: HOP-62 NSCLC
HOP-92 NSCLC = tested on: HOP-92 NSCLC
HS 578T breast = tested on: HS 578T breast
HT29 colon = tested on: HT29 colon
IGROV1 ovarian = tested on: IGROV1 ovarian
K-562 leukemia = tested on: K-562 leukemia
KM12 colon = tested on: KM12 colon
LOX IMVI melanoma = tested on: LOX IMVI melanoma
M14 melanoma = tested on: M14 melanoma
MALME-3M melanoma = tested on: MALME-3M melanoma
MCF7 breast = tested on: MCF7 breast
MDA-MB-231 breast = tested on: MDA-MB-231 breast
MDA-MB-435 = tested on: MDA-MB-435
MOLT-4 leukemia = tested on: MOLT-4 leukemia
NCI-H226 lung = tested on: NCI-H226 lung
NCI-H23 lung = tested on: NCI-H23 lung
NCI-H460 lung = tested on: NCI-H460 lung
NCI-H522 lung = tested on: NCI-H522 lung
NCI/ADR-RES ovarian = tested on: NCI/ADR-RES ovarian
OVCAR-3 ovarian = tested on: OVCAR-3 ovarian
OVCAR-4 ovarian = tested on: OVCAR-4 ovarian
OVCAR-5 ovarian = tested on: OVCAR-5 ovarian
OVCAR-8 ovarian = tested on: OVCAR-8 ovarian
PC-3 prostate = tested on: PC-3 prostate
RPMI-8226 leukemia = tested on: RPMI-8226 leukemia
RXF 393 renal = tested on: RXF 393 renal
SF-268 CNS = tested on: SF-268 CNS
SF-295 CNS = tested on: SF-295 CNS
SF-539 CNS = tested on: SF-539 CNS
SK-MEL-2 melanoma = tested on: SK-MEL-2 melanoma
SK-MEL-28 melanoma = tested on: SK-MEL-28 melanoma
SK-MEL-5 melanoma = tested on: SK-MEL-5 melanoma
SK-OV-3 ovarian = tested on: SK-OV-3 ovarian
SN12C renal = tested on: SN12C renal
SNB-19 CNS = tested on: SNB-19 CNS
SNB-75 CNS = tested on: SNB-75 CNS
SR leukemia = tested on: SR leukemia
SW-620 colon = tested on: SW-620 colon
T-47D breast = tested on: T-47D breast
TK-10 renal = tested on: TK-10 renal
U251 CNS = tested on: U251 CNS
UACC-257 melanoma = tested on: UACC-257 melanoma
UACC-62 melanoma = tested on: UACC-62 melanoma
UO-31 renal = tested on: UO-31 renal

## C/C=C(\C)C(=O)O[C@H]1C=CC(=O)O[C@H]1CC[C@H](O)[C@H](C)O
786-0 renal
  GI50: 5.46 µM
  TGI: 12.8 µM
A498 renal
  GI50: 16.4 µM
  TGI: 30.3 µM
A549 NSCLC
  GI50: 18 µM
  TGI: 36.3 µM
ACHN renal
  GI50: 6.42 µM
  TGI: 19.7 µM
BT-549 breast
  GI50: 6.14 µM
  TGI: 19.9 µM
CAKI-1 renal
  GI50: 7.12 µM
  TGI: 13.1 µM
CCRF-CEM leukemia
  TGI: 0.335 µM
COLO 205 colon
  GI50: 3.22 µM
  TGI: 10.1 µM
DU-145 prostate
  GI50: 13.8 µM
  TGI: 27 µM
EKVX NSCLC
  GI50: 15.8 µM
  TGI: 30.5 µM
HCC-2998 colon
  GI50: 12.3 µM
  TGI: 26.3 µM
HCT-116 colon
  GI50: 1.38 µM
  TGI: 2.82 µM
HCT-15 colon
  GI50: 3.41 µM
  TGI: 12.7 µM
HL-60(TB) leukemia
  GI50: 0.469 µM
  TGI: 4.77 µM
HOP-62 NSCLC
  GI50: 15.3 µM
  TGI: 29.7 µM
HOP-92 NSCLC
  GI50: 6.3 µM
  TGI: 16.1 µM
HS 578T breast
  GI50: 6.8 µM
  TGI: 18.1 µM
HT29 colon
  GI50: 2.38 µM
  TGI: 6.65 µM
IGROV1 ovarian
  GI50: 4.17 µM
  TGI: 19 µM
K-562 leukemia
  GI50: 2.3 µM
  TGI: 8.72 µM
KM12 colon
  GI50: 12.4 µM
  TGI: 29.1 µM
LOX IMVI melanoma
  GI50: 2.24 µM
  TGI: 5.66 µM
M14 melanoma
  GI50: 6.82 µM
  TGI: 21.9 µM
MALME-3M melanoma
  GI50: 4.62 µM
  TGI: 16.1 µM
MCF7 breast
  GI50: 2.45 µM
  TGI: 11.3 µM
MDA-MB-231 breast
  GI50: 12.8 µM
  TGI: 28.3 µM
MDA-MB-435
  GI50: 3.43 µM
  TGI: 12.7 µM
MOLT-4 leukemia
  GI50: 0.522 µM
  TGI: 5.59 µM
NCI-H226 lung
  GI50: 4.14 µM
  TGI: 16.6 µM
NCI-H23 lung
  GI50: 15.7 µM
  TGI: 34.2 µM
NCI-H460 lung
  GI50: 11.6 µM
  TGI: 25.4 µM
NCI-H522 lung
  GI50: 2.05 µM
  TGI: 6.13 µM
NCI/ADR-RES ovarian
  GI50: 15.3 µM
  TGI: 34 µM
OVCAR-3 ovarian
  GI50: 3.06 µM
  TGI: 8.79 µM
OVCAR-4 ovarian
  GI50: 6.42 µM
  TGI: 20.7 µM
OVCAR-5 ovarian
  GI50: 16.9 µM
  TGI: 32.1 µM
OVCAR-8 ovarian
  GI50: 12.8 µM
  TGI: 30.7 µM
PC-3 prostate
  GI50: 8.46 µM
  TGI: 22.7 µM
RPMI-8226 leukemia
  GI50: 2.22 µM
  TGI: 7.54 µM
RXF 393 renal
  GI50: 2 µM
  TGI: 5.4 µM
SF-268 CNS
  GI50: 2.83 µM
  TGI: 12.3 µM
SF-295 CNS
  GI50: 13 µM
  TGI: 26.5 µM
SF-539 CNS
  GI50: 13.3 µM
  TGI: 27.1 µM
SK-MEL-2 melanoma
  GI50: 8.41 µM
  TGI: 27.9 µM
SK-MEL-28 melanoma
  GI50: 2.85 µM
  TGI: 8.05 µM
SK-MEL-5 melanoma
  GI50: 5.13 µM
  TGI: 11 µM
SK-OV-3 ovarian
  GI50: 16.2 µM
  TGI: 31 µM
SN12C renal
  GI50: 8.06 µM
  TGI: 25.3 µM
SNB-19 CNS
  GI50: 12.3 µM
  TGI: 26.4 µM
SNB-75 CNS
  GI50: 8.98 µM
  TGI: 22.7 µM
SR leukemia
  GI50: 15.1 µM
  TGI: 45.7 µM
SW-620 colon
  GI50: 2.64 µM
  TGI: 6.08 µM
T-47D breast
  GI50: 2.34 µM
  TGI: 10.8 µM
TK-10 renal
  GI50: 9.78 µM
  TGI: 23.9 µM
U251 CNS
  GI50: 4.64 µM
  TGI: 17.4 µM
UACC-257 melanoma
  GI50: 16.4 µM
  TGI: 34.2 µM
UACC-62 melanoma
  GI50: 6.42 µM
  TGI: 17.3 µM
UO-31 renal
  GI50: 9.06 µM
  TGI: 23.5 µM
